# Assay results from patent US20230087766A1, “METHODS OF REACTIVATING LATENT HUMAN IMMUNODEFICIENCY VIRUS AND RELATED COMPOSITIONS” (priority 2017, published 2023).
# Legend:
# Type in all cases: cell-based
# [1] = tested on: HIV LTR in J-Lat A1 cells; assay: Chromatin immunoprecipitation (ChIP) at the HIV LTR; details: pretreatment with AR12, then Na-Cro
# Excerpt: FIG. 2 is a series of images and graphs showing that histone crotonylation by sodium crotonate addition re-programs histone tails at the HIV LTR. Panel A illustrates that Na-Cro addition increased global expression of H3K4Cro, H3K4Ac, and H3K18Ac while decreasing H3K27Me3. Panel B illustrates expression of transcription factors after Na-Cro addition in J-Lat Al cells. Panels C-E illustrate that Na-Cro addition re-programmed histone tails at the HIV LTR. Chromatin immunoprecipitation (ChIP) assay was performed by using anti-H3K4Cr, anti-H3K4Ac, and anti-H3K27Me3 antibodies after J-Lat Al cells were treated with 30 mM Na-Cro for 4 hours. PCR primers were specific for the HIV LTR region.
# (§1) FIG. 7 is a series of graphs showing that induction of de-crotonylation of histone tail at HIV LTR is independent of SIRTs. Panel A illustrates that J-Lat Al cells were pre-treated with either 50 μM RSV or 1 mM NAM, followed by 30 mM Na-Cro addition to reactivate latent HIV expression. Untreated controls were compared with positive controls involving individual treatment of Na-Cro, RSV, or NAM. *, p<0.05; **, p<0.01 compared with control treatment. #, p<0.05 compared with Na-Cro treatment. Panel B illustrates that gene expression of sirt1 or sirt3 was measured by RT-qPCR in J-Lat Al cells treated with either 25 μM RSV, 50 μM RSV, or 1 mM NAM. *, p<0.05 and **, p<0.01 compared with control treatment. Panels C and D illustrate that histone crotonylation induces binding of SIRT3 and SIRT1 at the HIV LTR. J-Lat Al cells were treated with 30 mM Na-Cro for 4 hours and analyzed by ChIP assays using anti-SIRT1 or anti-SIRT3 antibodies. *, p<0.05 compared with control treatment.
# Chromatin Immunoprecipitation (ChIP): J-Lat Al cells (2.5 to 5 million) were utilized in ChIP assays with anti-H3K18Ac, anti-H3K4Cr, anti-H3K27Me3, anti-H3K4Ac, anti-SIRT3 (CELL SIGNALING TECHNOLOGY®), and anti-SIRT1 (CELL SIGNALING TECHNOLOGY®) antibodies. ChIP assays were performed using […]® Kit from CELL SIGNALING TECHNOLOGY® as per the manufacturer's recommendations. Samples were cross-linked using formaldehyde and 150-1000 bp fragments were made using Micrococcal Nuclease digestion and 7 cycles of 30 seconds on/30 seconds off sonication. Antibodies were used to probe respective proteins. Purification of DNA was performed using the […]® Kit Protocol. Purified ChIP DNA was used in SYBR® Green qPCR using ChIP primers specific for HIV LTR.
# [2] = tested on: latent HIV (HIV LTR-driven transcription) in J-Lat A1 cells; details: for reactivation of latent HIV by epigenetic modifiers: 30 mM Na-Cro, 500 nM SAHA, 2 μM GSK343 or 5 μM AZA-dc; for reactivation of latent HIV by epigenetic modifiers / increase in reactivation of latent HIV in combination with Na-Cro as compared to single treatment: RT-qPCR; for increase in reactivation of latent HIV in combination with Na-Cro as compared to single treatment: J-Lat A1 cells pretreated with Na-Cro, then the LRA added
# Procedure: (§2) Cell culture: J-Lat Al cells (derived from Jurkat cells harboring HIV LTR-Tat-GFP gene) and U1 cells (promonocytic cell line harboring one copy of HIV genome with defective tat gene) were obtained from NIH AIDS Reagent Program and cultured at 37° C. with 5% CO2 in RPM11640 medium containing 10% FBS and 1% penicillin-streptomycin as previously described (see G. Jiang, et al. PLoS Pathogens 11, e1005066 (2015)).
# (§3) For inhibiting ACSS2 and crotonylation, cells were pretreated with ACSS2 inhibitor, AR12 (SELLECK CHEMICALS™, Houston, Tex.), for 30 minutes, followed by Na-Cro treatment for 4 or 18 hours.
# (§4) Real-Time PCR Analysis: HIV gene expression was measured using real-time PCR in J-Lat Al cells treated with LRAs. Total nucleic acid was extracted using RNEASY™ Kit, genomic DNA digested using DNase I and total RNA reverse transcribed using Superscript III to synthesize cDNA. […] […] TAMRA-3′ (SEQ ID NO:3).
# [3] = tested on: latent HIV in primary CD4+ T cells from HIV-infected patients under suppressive ART; assay: HIV transcription by ddPCR in primary CD4+ T cells from HIV-infected patients; details: 6 hours
# Procedure: Panels A-C illustrate that primary CD4+ T cells were treated with […] PMA 2 plus 2 μg/ml ionomycin, 12 nM PEP005, 40 mM Na-Cro, or 12 nM PEP005 combined with 40 mM Na-Cro for 6 hours. Viral transcription from total RNA was analyzed by RT-ddPCR with primers targeting initiation (TAR region) (see panel A), elongation (long LTR) (see panel B), or full transcription (poly A region) (see panel C) of the HIV genome. Panel D illustrates a working model of epigenetic regulation of HIV latency/transcription by histone crotonylation.
# To validate this finding in the ex vivo primary CD4+ T cells from patients the peripheral blood samples from 6 HIV-infected patients under suppressive ART were obtained. They had undetectable plasma viral load (<20 copies/ml plasma) and >400 CD4+ T cell number per […] (see Table 1). Primary CD4+ T cells were treated with PMA/Ionomycin, PEP005, Na-Cro, or PEP005 in combination with Na-Cro for 6 hours. HIV transcription following reactivation was measured by digital droplet PCR (ddPCR) targeting TAR region (initiation), long LTR region (elongation), or Poly A region (full transcription) of HIV genome (see G. Jiang, et al. PLoS pathogens 11, e1005066 (2015); P. Kaiser, et al. Journal of virological methods 242, 1-8 (2017); and L. Shan, et al. Journal of Virology 87, 6521-6525 (2013)).
# Primary CD4+ T Cell Isolation, Treatment, and Digital Droplet PCR Assays: Peripheral blood samples were obtained from HIV-infected individuals (age ranging from 46-62 years old) on suppressive ART for >8 years (n=6). The plasma viral loads were below the detective level (<20 copies/ml plasma) and the average CD4+ T cell number was 664.4±180.5 cells/ml. The primary CD4+ T cells were isolated using the EASYSEP™ kit ([…]™ Technologies Inc., Vancouver, BC, Canada) as previously described (see G. Jiang, et al. PLoS pathogens 11, el 005066 (2015) and G. Jiang, et al. AIDS 28, 1555-1566 (2014)). The purified CD4+ T cells were plated at a density of 0.5-1×10^6 cells and treated with Control, 200 ng/ml PMA plus 2 μM lonomycin, 12 nM PEP005, 40 mM Na-Cro, or 12 nM PEP005 plus 40 mM Na-Cro for 6 hours. Cell pellets were collected for RNA isolation. Initiation, elongation, or full transcription of HIV was analyzed with ddPCR assays as reported before (see G. Jiang, et al. PLoS pathogens 11, e1005066 (2015); P. Kaiser, et al. Journal of virological methods 242, 1-8 (2017); and L. Shan, et al. Journal of virology 87, 6521-6525 (2013)).
# sirt3 = sirt3 gene expression by RT-qPCR in J-Lat A1 cells; details: 25 μM or 50 μM RSV
# Procedure: as §1
# [4] = tested on: latent HIV in resting CD4+ T cells from HIV-infected individuals under ART; assay: Quantitative Viral Outgrowth Assay (QVOA), p24 ELISA; details: resting CD4+ T cells from 5 HIV-infected individuals under ART; ex vivo
# Procedure: It was tested whether the histone crotonylation inducer, sodium crotonate, can reactivate latent HIV reservoirs from a patient under ART. Peripheral blood samples were obtained from 5 HIV-infected individuals with undetectable plasma viral loads and higher CD4+ T cell numbers (see Table 1). One million resting CD4+ T cells were treated with IL-2, PHA+IL-2, or IL-2+Na-Cro, and HIV p24 production was measured by QVOA using p24 ELISA as a measure of HIV reactivation.
# Quantitative Viral Outgrowth Assay: Peripheral blood mononuclear cells (PBMC) were obtained from HIV-infected individuals on suppressive ART (n=5) by continuous-flow leukopheresis. Isolation of resting CD4+ T cells and quantification of replication competent virus was performed as previously described (see S. Dandekar, et al. Current HIV/AIDS reports 4, 10-15 (2007)). […] Cultures were scored as positive if p24 was detected at day 15 and was increased in concentration at day 19. […]
# latent HIV in U1 cells = assay: Reactivation of latent HIV in U1 cells by RT-qPCR
# Procedure: as §2, §3, §4
# [5] = primary CD4+ T cells of 6 patients, 40 mM Na-Cro or 12 nM PEP005, ddPCR
smiles,measurement,setting,value
"NCC(=O)Nc1ccc(-n2nc(C(F)(F)F)cc2-c2ccc3c(ccc4ccccc43)c2)cc1 [AR12, reference compound]",histone crotonylation at HIV LTR,[1],markedly dampened
same,decrease in latent HIV reactivation by Na-Cro,"[2]; pretreatment with AR12 for 30 minutes, then Na-Cro",> 60%
Nc1ncn([C@H]2C[C@H](O)[C@@H](CO)O2)c(=O)n1 [AZA-dC],reactivation of latent HIV by epigenetic modifiers,[2]; J-Lat A1 cells,minimally reactivated latent HIV
CCCc1cc(C)[nH]c(=O)c1CNC(=O)c1cc(-c2ccnc(N3CCN(C)CC3)c2)cc2c1cnn2C(C)C [GSK343],synergistic effect on HIV reactivation in combination with Na-Cro,[2]; J-Lat A1 cells,did not show any synergistic effect
same,reactivation of latent HIV by epigenetic modifiers,[2]; J-Lat A1 cells,minimally reactivated latent HIV
Cc1sc2c(c1C)C(c1ccc(Cl)cc1)=N[C@@H](CC(=O)OC(C)(C)C)c1nnc(C)n1-2 [JQ1],increase in reactivation of latent HIV in combination with Na-Cro as compared to single treatment,[2],1.8 fold
"NC(=O)c1cccnc1 [NAM, nicotinamide]",viral reactivation after pretreatment,"[2]; J-Lat A1 cells, 1 mM NAM pretreatment then 30 mM Na-Cro",less than 4 fold
"C/C=C(/C)C(=O)O[C@H]1C(C)=C[C@]23C(=O)[C@@H](C=C(CO)[C@@H](O)[C@]12O)[C@H]1[C@@H](C[C@H]3C)C1(C)C [PEP005, ingenol-3-angelate]","elongation of HIV transcripts (long LTR), patients responding",[3]; [5],5 of 6 patient samples
same,"full-length transcription of HIV (poly A region), patients responding",[3]; [5],5 of 6 patient samples
same,"initiation of HIV transcription (TAR region), patients responding",[3]; [5],all six patients
same,"reactivation of latent HIV, combination of Na-Cro with PEP005","[3]; primary CD4+ T cells, 12 nM PEP005 combined with 40 mM Na-Cro, also higher than PMA/Ionomycin",greater reactivation of latent HIV than either agent alone
same,increase in reactivation of latent HIV in combination with Na-Cro as compared to single treatment,[2],8 fold
"Oc1ccc(C=Cc2cc(O)cc(O)c2)cc1 [RSV, Resveratrol]",increase in expression of sirt3,sirt3,two to three
same,crotonyl-CoA-mediated latent HIV reactivation after pretreatment,"[2]; J-Lat A1 cells, 50 μM RSV pretreatment then 30 mM Na-Cro, compared to crotonyl-CoA alone",27 fold
"O=C(CCCCCCC(=O)Nc1ccccc1)NO [SAHA, suberoylanilide hydroxamic acid]","replication-competent HIV recovered (HIV reactivation, QVOA)",[4],able to flush out the latent HIV in these patient cells except for one patient
same,"HIV reactivation, pretreatment with SAHA followed by Na-Cro addition",latent HIV in U1 cells; 500 nM SAHA then 40 mM Na-Cro,abolished the combination effect
same,"HIV reactivation, pretreatment with Na-Cro then SAHA, compared with SAHA alone","latent HIV in U1 cells; 40 mM Na-Cro then 500 nM SAHA, overnight, real-time PCR",enhanced SAHA-reactivation of latent HIV
same,increase in reactivation of latent HIV in combination with Na-Cro as compared to single treatment,[2],2.0 fold
same,"HIV reactivation, pretreatment with SAHA followed by Na-Cro addition","[2]; J-Lat A1 cells, 250 nM SAHA then 40 mM Na-Cro overnight",abolished the combination effect
same,reactivation of latent HIV by epigenetic modifiers,[2]; J-Lat A1 cells,comparable capacity to reactivate latent HIV
CCC/C=C/C=C/C(=O)O[C@H]1/C(=C/C(=O)OC)C[C@H]2C[C@H]([C@@H](C)O)OC(=O)C[C@H](O)C[C@@H]3C[C@H](OC(C)=O)C(C)(C)[C@](O)(C[C@@H]4C/C(=C/C(=O)OC)C[C@H](/C=C/C(C)(C)[C@]1(O)O2)O4)O3 [bryostatin-1],increase in reactivation of latent HIV in combination with Na-Cro as compared to single treatment,[2],3.3 fold
